Laboratory results reported in patent US11001563B2, “SSAO inhibitor” (SHANDONG DANHONG PHARMACEUTICAL CO., LTD., priority 2017, dated 2021).

Tests used:
[1] = Distribution of compounds in liver and blood of CD-1 mice; format: in vivo; settings: single oral dose
Method: Experimental purpose: distribution of compounds in liver and blood of CD-1 mice was tested;
CD-1 Mice (male, 25-35 g, 6-9 weeks old, Shanghai Slack);
Experimental procedure: after oral administration, the drug was distributed in the liver and blood of rodents, candidate compounds in the experiment were formulated into a clear solution to be administered to mice in a single oral dose. The oral solvent was a certain proportion of an aqueous solution of hydroxypropyl P-cyclodextrin or a physiological saline solution. The concentration of the drug in the liver and blood was measured at 1 hour and 4 hours after administration.

CYP1A2 = CYP1A2 (Homo sapiens (Human), UniProt P05177); assay: Human liver microsomal CYP inhibition assay; format: in vitro ADME; settings: human liver microsomes, 5-in-1 probe substrate
Method: (§1) The purpose of the study was to evaluate the inhibition of the test sample on human liver microsomal cytochrome P450 isozymes (CYP1A2, CYP2C9, CYP2C19, CYP2D6, and CYP3A4) by using the CYP isozyme 5-in-1 probe substrate.
(§2) Mixed human liver microsomes (HLM) were purchased from Corning Inc. (Steuben, N.Y., USA) or XenoTech, LLC. (Lenexa, Kans., USA) or other suppliers, and stored at the temperature below −70° C. prior to use.
(§3) A series of diluted test sample working solution were added to an incubation system containing cofactors of human liver microsomes, a probe substrate and a circulation system, and the control without a test substance but containing a solvent was used as enzyme activity control (100%). The concentration of the metabolite produced by the probe sample in the sample was determined by liquid chromatography-tandem mass spectrometry (LC-MS/MS). Non-linear regression analysis was performed on the concentration of the average percent activity of the test sample by using SigmaPlot (V.11). The IC50 value was calculated by a three-parameter or four-parameter recursive logarithmic equation.

CYP2C19 = CYP2C19 (Homo sapiens (Human), UniProt P33261); assay: Human liver microsomal CYP inhibition assay; format: in vitro ADME; settings: human liver microsomes, 5-in-1 probe substrate
Method: as §1, §2, §3

CYP2C9 = CYP2C9 (Homo sapiens (Human), UniProt P11712); assay: Human liver microsomal CYP inhibition assay; format: in vitro ADME; settings: human liver microsomes, 5-in-1 probe substrate
Method: as §1, §2, §3

CYP2D6 = CYP2D6 (Homo sapiens (Human), UniProt P10635); assay: Human liver microsomal CYP inhibition assay; format: in vitro ADME; settings: human liver microsomes, 5-in-1 probe substrate
Method: as §1, §2, §3

CYP3A4 = CYP3A4 (Homo sapiens (Human), UniProt P08684); assay: Human liver microsomal CYP inhibition assay; format: in vitro ADME; settings: human liver microsomes, 5-in-1 probe substrate
Method: as §1, §2, §3

Sequence of CYP2C9 (P11712 whole entry): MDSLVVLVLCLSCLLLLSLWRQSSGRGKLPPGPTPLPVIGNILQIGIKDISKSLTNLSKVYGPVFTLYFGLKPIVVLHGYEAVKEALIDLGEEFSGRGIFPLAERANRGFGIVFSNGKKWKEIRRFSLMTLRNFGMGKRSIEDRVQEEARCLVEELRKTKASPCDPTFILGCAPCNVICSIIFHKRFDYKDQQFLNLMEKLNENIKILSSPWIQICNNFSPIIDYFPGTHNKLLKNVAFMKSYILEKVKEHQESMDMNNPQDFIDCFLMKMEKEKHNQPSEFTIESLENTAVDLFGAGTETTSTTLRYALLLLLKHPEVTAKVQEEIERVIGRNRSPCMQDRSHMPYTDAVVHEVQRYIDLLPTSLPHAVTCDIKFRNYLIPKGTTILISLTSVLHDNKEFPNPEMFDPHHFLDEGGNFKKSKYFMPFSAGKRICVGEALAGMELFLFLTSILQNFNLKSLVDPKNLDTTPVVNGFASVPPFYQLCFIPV
Sequence of CYP2C19 (P33261 whole entry): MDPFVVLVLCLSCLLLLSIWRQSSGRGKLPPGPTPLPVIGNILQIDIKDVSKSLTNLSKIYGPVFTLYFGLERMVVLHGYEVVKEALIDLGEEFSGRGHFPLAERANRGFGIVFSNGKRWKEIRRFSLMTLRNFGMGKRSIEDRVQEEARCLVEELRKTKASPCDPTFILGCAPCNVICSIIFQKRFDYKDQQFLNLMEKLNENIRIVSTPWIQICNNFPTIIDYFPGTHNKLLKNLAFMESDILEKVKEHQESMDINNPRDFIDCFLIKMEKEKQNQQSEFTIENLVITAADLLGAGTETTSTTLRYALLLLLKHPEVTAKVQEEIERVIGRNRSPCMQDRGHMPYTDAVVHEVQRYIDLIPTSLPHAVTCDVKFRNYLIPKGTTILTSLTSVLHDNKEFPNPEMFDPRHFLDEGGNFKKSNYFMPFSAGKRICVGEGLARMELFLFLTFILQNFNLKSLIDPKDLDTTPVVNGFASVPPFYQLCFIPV
Sequence of CYP2D6 (P10635 whole entry): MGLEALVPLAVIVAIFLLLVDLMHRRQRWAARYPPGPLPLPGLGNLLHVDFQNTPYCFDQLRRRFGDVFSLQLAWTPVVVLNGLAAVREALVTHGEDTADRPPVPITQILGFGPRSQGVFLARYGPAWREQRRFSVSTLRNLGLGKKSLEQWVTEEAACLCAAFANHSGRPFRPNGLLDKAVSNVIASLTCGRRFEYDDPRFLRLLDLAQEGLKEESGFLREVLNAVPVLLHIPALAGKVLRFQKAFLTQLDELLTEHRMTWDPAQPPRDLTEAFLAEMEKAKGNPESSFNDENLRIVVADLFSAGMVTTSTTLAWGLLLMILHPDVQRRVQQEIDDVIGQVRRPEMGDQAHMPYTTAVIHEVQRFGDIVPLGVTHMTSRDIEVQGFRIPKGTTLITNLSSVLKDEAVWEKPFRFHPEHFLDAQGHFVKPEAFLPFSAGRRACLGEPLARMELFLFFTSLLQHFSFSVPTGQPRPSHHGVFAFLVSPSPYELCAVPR
Sequence of CYP1A2 (P05177 whole entry): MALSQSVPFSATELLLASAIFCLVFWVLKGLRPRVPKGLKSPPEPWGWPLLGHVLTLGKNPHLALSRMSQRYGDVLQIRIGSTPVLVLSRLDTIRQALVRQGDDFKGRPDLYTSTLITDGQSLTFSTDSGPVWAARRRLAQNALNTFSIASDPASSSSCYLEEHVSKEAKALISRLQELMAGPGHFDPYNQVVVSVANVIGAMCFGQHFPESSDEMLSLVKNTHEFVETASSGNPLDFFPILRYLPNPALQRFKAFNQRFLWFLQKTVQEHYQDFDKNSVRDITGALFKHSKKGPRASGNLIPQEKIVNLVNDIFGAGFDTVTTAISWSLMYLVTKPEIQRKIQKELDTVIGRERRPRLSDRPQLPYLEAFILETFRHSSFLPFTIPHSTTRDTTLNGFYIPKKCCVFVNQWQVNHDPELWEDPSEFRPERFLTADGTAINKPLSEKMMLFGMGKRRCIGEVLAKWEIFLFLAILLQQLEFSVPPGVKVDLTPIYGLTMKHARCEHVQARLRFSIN
Sequence of CYP3A4 (P08684 whole entry): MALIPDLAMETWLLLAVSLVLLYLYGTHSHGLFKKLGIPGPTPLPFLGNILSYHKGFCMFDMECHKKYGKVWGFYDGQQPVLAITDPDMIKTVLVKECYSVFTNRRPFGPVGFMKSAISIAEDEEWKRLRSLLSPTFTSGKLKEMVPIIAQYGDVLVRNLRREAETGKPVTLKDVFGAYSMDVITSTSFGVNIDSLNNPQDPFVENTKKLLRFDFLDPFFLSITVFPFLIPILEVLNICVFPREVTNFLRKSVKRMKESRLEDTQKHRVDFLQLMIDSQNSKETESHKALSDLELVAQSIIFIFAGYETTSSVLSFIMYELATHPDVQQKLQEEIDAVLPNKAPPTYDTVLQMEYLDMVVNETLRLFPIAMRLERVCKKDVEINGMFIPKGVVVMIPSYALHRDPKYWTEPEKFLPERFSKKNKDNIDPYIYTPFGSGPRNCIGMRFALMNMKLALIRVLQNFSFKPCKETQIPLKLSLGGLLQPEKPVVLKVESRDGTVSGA

Liver Concentration ([1]; @1.0 hour): 13140
Liver Concentration/Plasma Concentration ratio ([1]; @1.0 hour): 10
Plasma Concentration ([1]; @1.0 hour): 1470
Liver Concentration ([1]; @4.0 hour): 2120
Liver Concentration/Plasma Concentration ratio ([1]; @4.0 hour): 14
Plasma Concentration ([1]; @4.0 hour): 154
IC50 (CYP1A2): 9 µM
IC50 (CYP2C19): 76 µM
IC50 (CYP2C9): 32 µM
IC50 (CYP2D6): 38 µM
IC50 (CYP3A4): > 50 µM
Compound: CC(C)(C)NC(=O)c1ccc(OC/C(=C/F)CN)cc1.Cl [PXS-4728A, reference compound]
